Data taken from ChEMBL document CHEMBL1201862, “PubChem BioAssay data set” (2004).
Activity calls are given as the source filed them.

How the values were obtained:
[1] = luciferase reporter signal suppression in cells – H4 neuroglioma cells, luminescence, dose response (AID 1990); format: functional, cell-based
[2] = luciferase reporter signal reduction – luminescence, H4-C neuroglioblastoma cells, dose response (AID 2458); format: functional, cell-based;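 further: H4 neuroglioblastoma cells stably carrying a luciferase reporter gene fusion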
cells = format: functional, cell-based
[3] = alpha-synuclein stem-loop luciferase translation blockers – H4 neuroglioma cells, luminescence, confirmation (AID 1988); format: functional, cell-based
[4] = Luminescence-based dose response cell-based high throughput screening assay for cytotoxic compounds using the IEC-6 intestinal epithelial cell line. [Related pubchem assays: 1858 (Summary AID.), 1825 (Counterscreen.), 1907 (Confirmation screen.)]; format: functional
[5] = alpha-synuclein stem-loop translation blockers – luminescence, H4 neuroglioblastoma cells, dose confirmation, confirmation (AID 2454); format: functional, cell-based;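 further: H4 neuroglioblastoma cells carrying an alpha-synuclein 5'UTR luciferase reporter; potency for inhibition of the luciferase signal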
[6] = HEK-293T viability loss after treatment – luminescence, T-cell screen hits, cytotoxicity control for TCR NF-kB inhibitor project, dose response (AID 489026); format: functional, cell-based;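 further: cells exposed to compound about 14 hours before the viability readout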
Estrogen receptor = target: T1, Estrogen receptor (Homo sapiens, UniProt P03372); assay: ERα coactivator recruitment enhancers – biochemical, TR-FRET, ERα LBD, dose response (AID 737)
T1 sequence (P03372 whole entry): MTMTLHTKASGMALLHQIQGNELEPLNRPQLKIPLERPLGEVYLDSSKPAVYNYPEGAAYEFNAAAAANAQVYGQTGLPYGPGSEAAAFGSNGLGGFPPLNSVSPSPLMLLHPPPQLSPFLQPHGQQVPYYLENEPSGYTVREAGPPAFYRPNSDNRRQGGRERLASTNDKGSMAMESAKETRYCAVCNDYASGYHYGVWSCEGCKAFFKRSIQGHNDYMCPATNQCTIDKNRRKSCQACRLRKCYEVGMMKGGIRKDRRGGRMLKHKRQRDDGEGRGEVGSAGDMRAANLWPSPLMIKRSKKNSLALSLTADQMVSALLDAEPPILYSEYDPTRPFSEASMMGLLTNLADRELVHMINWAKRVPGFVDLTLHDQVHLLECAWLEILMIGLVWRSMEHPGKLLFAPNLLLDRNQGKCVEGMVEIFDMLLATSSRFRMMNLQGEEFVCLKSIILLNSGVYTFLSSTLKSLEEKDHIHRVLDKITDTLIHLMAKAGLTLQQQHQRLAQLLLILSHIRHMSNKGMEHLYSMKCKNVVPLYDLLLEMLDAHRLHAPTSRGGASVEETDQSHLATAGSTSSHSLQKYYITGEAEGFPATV

Streptococcus = assay: Luminescence Microorganism-Based Dose Response Follow up to Identify Compounds Cytotoxic to Streptococcus. [Related pubchem assays: 1677 (Project Summary), 1915, 1914, 1902 (Retest at Dose), 1900 (Counter Screen), 1662 (Primary HTS)]; format: functional, organism-based
[7] = target: Transitional endoplasmic reticulum ATPase (Homo sapiens, UniProt P55072, C522A); assay: C522A mutant p97 ATPase inhibitors, dose response, counter-screen for p97 inhibitor project, biochemical, luminescence (AID 1544)
[8] = target: Transitional endoplasmic reticulum ATPase (Homo sapiens, UniProt P55072); assay: p97 ATPase inhibitors, dose response, biochemical (AID 1534)
[9] = target: T2, RNA-binding protein pos-1 (Caenorhabditis elegans, UniProt G5EF15); assay: disruptors of C. elegans POS-1 RNA interaction – biochemical, fluorescence polarization, dose response (AID 1964);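 further: purified POS-1 fused to maltose binding protein made in E. coli; potency of compounds blocking POS-1 binding to fluorescent RNA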
T2 sequence (G5EF15 whole entry): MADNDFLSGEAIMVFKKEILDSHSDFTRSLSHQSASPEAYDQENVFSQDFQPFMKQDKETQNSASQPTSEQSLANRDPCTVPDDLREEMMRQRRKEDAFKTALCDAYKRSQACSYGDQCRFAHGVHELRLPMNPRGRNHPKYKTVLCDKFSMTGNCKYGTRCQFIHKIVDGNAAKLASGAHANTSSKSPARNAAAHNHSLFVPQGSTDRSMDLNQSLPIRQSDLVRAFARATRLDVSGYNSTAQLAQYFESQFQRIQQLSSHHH

Aspartyl aminopeptidase = target: T3, Aspartyl aminopeptidase (Plasmodium falciparum 3D7, UniProt Q8I2J3)
T3 sequence (Q8I2J3 whole entry): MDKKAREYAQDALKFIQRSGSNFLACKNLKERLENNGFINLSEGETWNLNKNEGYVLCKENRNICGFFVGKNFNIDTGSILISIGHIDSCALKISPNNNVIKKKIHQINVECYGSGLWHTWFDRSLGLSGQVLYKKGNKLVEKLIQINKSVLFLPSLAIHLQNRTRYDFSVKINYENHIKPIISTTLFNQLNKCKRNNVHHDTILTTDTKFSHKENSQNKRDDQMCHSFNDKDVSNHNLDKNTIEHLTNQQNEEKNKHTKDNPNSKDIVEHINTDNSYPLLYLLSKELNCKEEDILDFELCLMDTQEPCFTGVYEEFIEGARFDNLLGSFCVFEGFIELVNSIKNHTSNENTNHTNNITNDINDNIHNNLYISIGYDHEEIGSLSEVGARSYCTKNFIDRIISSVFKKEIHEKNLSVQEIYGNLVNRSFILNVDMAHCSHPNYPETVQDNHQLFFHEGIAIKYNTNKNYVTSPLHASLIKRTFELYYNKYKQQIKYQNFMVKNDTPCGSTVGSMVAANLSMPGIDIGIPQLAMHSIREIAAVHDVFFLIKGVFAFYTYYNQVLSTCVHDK

Procathepsin L = Procathepsin L (Homo sapiens, UniProt P07711)
[10] = target: T4, Zinc finger protein mex-5 (Caenorhabditis elegans, UniProt Q9XUB2); assay: potency of MEX-5 RNA-binding blockers – biochemical, C. elegans, fluorescence polarization, dose response (AID 1960)
T4 sequence (Q9XUB2 whole entry): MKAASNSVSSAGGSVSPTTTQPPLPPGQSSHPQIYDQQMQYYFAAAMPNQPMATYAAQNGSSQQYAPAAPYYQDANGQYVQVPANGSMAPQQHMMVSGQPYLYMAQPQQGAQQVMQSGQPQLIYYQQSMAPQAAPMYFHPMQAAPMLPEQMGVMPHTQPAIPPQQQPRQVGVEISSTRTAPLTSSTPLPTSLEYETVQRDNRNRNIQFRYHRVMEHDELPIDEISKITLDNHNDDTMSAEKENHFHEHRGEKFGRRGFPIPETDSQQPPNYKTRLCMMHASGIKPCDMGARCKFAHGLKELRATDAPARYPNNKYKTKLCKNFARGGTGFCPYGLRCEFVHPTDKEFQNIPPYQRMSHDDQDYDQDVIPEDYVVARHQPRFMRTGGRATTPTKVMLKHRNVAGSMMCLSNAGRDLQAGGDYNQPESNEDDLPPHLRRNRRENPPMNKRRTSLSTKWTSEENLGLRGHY

[11] = HPDE-C7 pancreatic duct cell viability loss – fluorescence, HTS (AID 430); format: functional, cell-based; details: Homo sapiens
Large T antigen = Large T antigen (Simian virus 40, UniProt P03070); format: functional, Betapolyomavirus macacae;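 further: Confirmatory-stage PubChem screen for compounds that inhibit SV40 T antigen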
[12] = viability loss of HPDE-C7K cells – cell-based, fluorescence, HTS, primary screen (AID 431); format: functional; details: Homo sapiens
[13] = target: FAD-linked sulfhydryl oxidase ALR (Homo sapiens, UniProt P55789); assay: ALR-catalysed DTT oxidation blockers – biochemical, H2O2 detection, luminescence, cherry-pick, dose response (AID 493248)
[14] = viability loss in THP-1 monocytes – THP-1 cells, cytotoxicity control for Vif-APOBEC3G degradation inhibitor project, dose response (AID 1117359); format: functional; details: THP-1

Chain of FAD-linked sulfhydryl oxidase ALR (P55789 whole entry): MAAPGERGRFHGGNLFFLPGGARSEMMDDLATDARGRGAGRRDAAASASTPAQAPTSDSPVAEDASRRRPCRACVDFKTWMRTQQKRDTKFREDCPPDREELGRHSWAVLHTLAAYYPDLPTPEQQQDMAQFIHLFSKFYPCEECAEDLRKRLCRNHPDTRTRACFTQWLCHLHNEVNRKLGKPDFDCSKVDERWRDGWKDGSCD
Chain of Transitional endoplasmic reticulum ATPase (Homo sapiens, UniProt P55072) (P55072 whole entry, the tested form may be a part): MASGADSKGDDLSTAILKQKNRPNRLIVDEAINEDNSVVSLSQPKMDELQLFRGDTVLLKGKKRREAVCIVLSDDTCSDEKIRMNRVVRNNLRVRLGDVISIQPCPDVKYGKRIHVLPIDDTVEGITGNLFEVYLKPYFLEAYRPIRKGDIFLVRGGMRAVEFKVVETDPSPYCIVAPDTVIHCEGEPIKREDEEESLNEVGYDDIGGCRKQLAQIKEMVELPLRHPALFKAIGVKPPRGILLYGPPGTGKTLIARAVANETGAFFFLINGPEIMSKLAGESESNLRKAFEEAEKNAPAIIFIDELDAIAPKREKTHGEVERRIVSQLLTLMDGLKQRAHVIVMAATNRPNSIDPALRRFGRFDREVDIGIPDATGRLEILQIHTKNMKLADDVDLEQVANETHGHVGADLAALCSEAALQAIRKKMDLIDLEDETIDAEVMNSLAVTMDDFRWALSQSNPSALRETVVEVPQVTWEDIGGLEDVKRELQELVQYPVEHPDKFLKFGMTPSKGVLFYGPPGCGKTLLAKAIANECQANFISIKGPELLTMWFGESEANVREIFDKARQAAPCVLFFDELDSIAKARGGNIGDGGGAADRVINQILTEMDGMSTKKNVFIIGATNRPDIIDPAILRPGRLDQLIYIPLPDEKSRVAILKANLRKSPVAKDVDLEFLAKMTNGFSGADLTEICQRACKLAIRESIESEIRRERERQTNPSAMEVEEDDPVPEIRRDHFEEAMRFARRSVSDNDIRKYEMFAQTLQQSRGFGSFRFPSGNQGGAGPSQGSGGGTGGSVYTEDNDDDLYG
Chain of Large T antigen (P03070 whole entry): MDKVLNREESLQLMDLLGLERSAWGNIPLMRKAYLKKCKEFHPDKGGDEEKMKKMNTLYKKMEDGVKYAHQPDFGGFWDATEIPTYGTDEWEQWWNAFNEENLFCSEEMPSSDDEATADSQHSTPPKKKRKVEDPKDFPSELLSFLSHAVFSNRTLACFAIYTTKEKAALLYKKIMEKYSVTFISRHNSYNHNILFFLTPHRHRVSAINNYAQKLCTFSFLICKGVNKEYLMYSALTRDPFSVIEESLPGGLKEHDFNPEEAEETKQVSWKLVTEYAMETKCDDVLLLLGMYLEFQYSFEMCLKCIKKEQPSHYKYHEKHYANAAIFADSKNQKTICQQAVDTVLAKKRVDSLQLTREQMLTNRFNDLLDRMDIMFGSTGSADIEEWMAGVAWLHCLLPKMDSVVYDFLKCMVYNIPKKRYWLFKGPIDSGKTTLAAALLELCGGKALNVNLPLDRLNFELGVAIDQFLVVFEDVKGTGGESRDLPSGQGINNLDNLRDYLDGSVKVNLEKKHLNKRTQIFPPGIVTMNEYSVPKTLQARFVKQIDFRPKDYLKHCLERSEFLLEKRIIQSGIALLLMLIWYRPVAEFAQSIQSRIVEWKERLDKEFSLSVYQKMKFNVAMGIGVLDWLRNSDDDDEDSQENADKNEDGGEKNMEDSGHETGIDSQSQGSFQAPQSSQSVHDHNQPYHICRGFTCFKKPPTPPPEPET
Chain of Procathepsin L (P07711 whole entry): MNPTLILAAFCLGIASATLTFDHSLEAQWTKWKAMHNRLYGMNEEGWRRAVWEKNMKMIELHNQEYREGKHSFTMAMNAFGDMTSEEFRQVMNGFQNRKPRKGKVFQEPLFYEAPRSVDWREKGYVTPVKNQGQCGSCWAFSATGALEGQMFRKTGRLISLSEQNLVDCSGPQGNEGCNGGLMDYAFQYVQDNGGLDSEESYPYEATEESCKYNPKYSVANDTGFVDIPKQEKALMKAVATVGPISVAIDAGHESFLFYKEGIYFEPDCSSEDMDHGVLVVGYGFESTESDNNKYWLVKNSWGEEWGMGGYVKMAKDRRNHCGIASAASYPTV
Chain of Transitional endoplasmic reticulum ATPase (Homo sapiens, UniProt P55072, C522A) (P55072 2-806 C522A limits assumed): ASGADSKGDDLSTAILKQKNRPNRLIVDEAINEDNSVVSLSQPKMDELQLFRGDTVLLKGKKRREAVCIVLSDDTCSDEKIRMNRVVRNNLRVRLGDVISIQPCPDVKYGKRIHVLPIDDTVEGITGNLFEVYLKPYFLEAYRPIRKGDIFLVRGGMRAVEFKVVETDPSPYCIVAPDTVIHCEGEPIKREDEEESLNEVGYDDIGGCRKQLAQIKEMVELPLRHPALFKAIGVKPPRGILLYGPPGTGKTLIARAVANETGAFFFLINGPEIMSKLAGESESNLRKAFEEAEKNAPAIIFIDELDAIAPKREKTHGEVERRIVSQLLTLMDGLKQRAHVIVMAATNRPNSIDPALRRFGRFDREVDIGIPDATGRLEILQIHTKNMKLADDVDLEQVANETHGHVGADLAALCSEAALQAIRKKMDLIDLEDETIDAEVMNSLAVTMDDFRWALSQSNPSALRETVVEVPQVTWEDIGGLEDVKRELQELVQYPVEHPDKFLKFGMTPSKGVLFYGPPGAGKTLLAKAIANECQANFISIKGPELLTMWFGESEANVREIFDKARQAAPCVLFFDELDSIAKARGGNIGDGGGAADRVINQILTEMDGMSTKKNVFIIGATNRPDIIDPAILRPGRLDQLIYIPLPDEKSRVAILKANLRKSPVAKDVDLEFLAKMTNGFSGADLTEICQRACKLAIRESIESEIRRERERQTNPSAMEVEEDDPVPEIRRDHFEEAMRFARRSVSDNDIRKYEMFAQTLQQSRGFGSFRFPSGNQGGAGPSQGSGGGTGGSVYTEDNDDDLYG

Structure (SMILES): Cc1ccc(Nc2nc(-c3c(C)nc4ccccn34)cs2)cc1
- EC50 [1]: < 0.1 µM (active)
- EC50 [2]: 0.021 µM (active)
- EC50 (cells): 0.027 µM (active)
- EC50 [3]: < 0.1 µM (active)
- IC50 [4]: 0.0895 µM (active)
- EC50 [5]: 0.013 µM (active)
- IC50 [6]: > 80 µM (inactive)

Structure (SMILES): Cc1ccc(F)cc1NC(=O)c1cccc2nccnc12
- EC50 (Estrogen receptor): 13 µM (not active)

Structure (SMILES): O=C(c1ccc(F)cc1)n1c2ccccc2c2ccccc21
- EC50 (Streptococcus): > 500 µM (not active)

Structure (SMILES): COc1ccc(/C=N/Nc2nnc(-c3ccccc3)c(O)n2)cc1
- IC50 [7]: > 50 µM (not active)
- IC50 [8]: > 50 µM (not active)

Structure (SMILES): Oc1ccc(/C=C/c2cc(O)cc(O)c2)cc1 [RESVERATROL]
- EC50 [9]: > 300 µM (not active)
- IC50 (Aspartyl aminopeptidase): 2.24 µM (active)
- IC50 (Procathepsin L): > 59.6 µM (not active)
- EC50 [10]: 163 µM (active)
- EC50 [11]: 6.97 µM (active)
- IC50 (Large T antigen): 26.2 µM (active)
- EC50 [12]: > 20 µM (not active)
- AC50 [13]: 4.02 µM (active)
- CC50 [14]: 26.3 µM (active)
